From patent US8709710B2, “Methods of modulating interleukin-22 and immune response by notch regulators” (Deutsches Rheuma-Forschungszentrum Berlin, priority 2009, dated 2014) come the findings set out here.

The experiment has as its system human T helper cells. As to the kind of experiment: IL-22 expression in human T helper cells activated with anti-CD3/anti-CD28 microparticles and recombinant Delta-like 4. It is filed as cell-based. To be noted: increasing concentrations of Delta-like 4 on microparticles; no antigen-presenting cells; restimulated after 5 days; FIG. 6. How it is done: Naive, i.e. antigen-inexperienced, human T helper cells are activated in the absence of antigen-presenting cells with microparticles loaded with stimulating anti-CD3 and anti-CD28 antibodies and increasing concentrations of recombinantly produced Delta-like 4. After 5 days the cells are restimulated and the expression of IL-22 is analyzed.

Consider “Delta-like 4: recombinantly produced Notch ligand Delta-like 4, loaded on microparticles”, for which the “expression of IL-22” value is on record as “concentration-dependent expression of IL-22”.
